Assay results published in US11890287B2, “Therapeutic compounds and compositions for treating social disorders and substance use disorders” (Kinoxis Therapeutics Pty Ltd, priority 2015, dated 2024).
Entries after “also recorded” stand apart in the source; their conditions may differ.

Legend:
rats = test: In vivo toxicity/adverse events; parameters: species or system rat
Protocol: However, the rats were not ataxic or comatose, they were simply in a relaxed quiescent state. […] Effects on body temperature and other behaviours are not blocked by pre-treatment with the vasopressin V1A receptor antagonist SR49059 (10 mg/kg). […] The data in these two studies was gathered with DataSciences International biotelemetry system.

male Albino Wistar rats = test: Social preference test (caged conspecific vs toy rat); format: in vivo; settings: 5 mg/kg IP
Sprague Dawley rats = test: Acute toxicity, single intravenous bolus dose 1-30 mg/kg, one week dose range finding study; format: in vivo; settings: for Hunched posture or gait- mild (incidence) / Number of abnormalities detected: (incidence) / Palpebral closure- mild/moderate (incidence) / Piloerection- mild (incidence) / Reduced activity- mild (incidence): n 3
Protocol: The acute toxicity of the SOC-1 test item was assessed in Sprague Dawley rats following intravenous administration of a single bolus dose. A total of four groups of n=3 adult female rats were treated with 1, 3, 10 and 30 mg/kg doses of SOC-1. The rats were then observed for 7 days prior to termination on Study Day 8 without necropsy.
The design of this acute single dose toxicity study in rats was adapted from OECD Guideline for Testing of Chemicals No. 420 Acute Oral Toxicity—Fixed Dose Procedure’ 2001 (2) and the test facility Standard Operating Procedure SP_T002 ‘Dose Range Finding Study in Rodents’. The study procedures were conducted as outlined below and according to related test facility Standard Operating Procedures.
Briefly, on completion of the acclimation period the study was commenced with administration of the treatment on Study Day 1. […] Body weights were also collected daily. On Study Day 8 the surviving animals were culled without necropsy.
The test item treatments were administered as a bolus intravenous injection in a dose volume of 2 mL/kg on Study Day 1 with restraint on conscious animals (with the exception of Group 4 where the treatment was administered in a dose volume of 6 mL/kg on lightly anaesthetised animals following the administration of isofluorane anaesthetic).
Morbidity and mortality observations were recorded daily during the acclimation period and on Day 8, and twice daily from Day 1 through Day 7.
Clinical observations were conducted at least once during the acclimation period. Clinical observations were conducted at least once daily from Day 1 up to and including the day prior to termination. On the day of treatment the animals were monitored continuously for the first 30 min post-treatment with formal observations made at 30 minutes, 1 hour and 4 hours post-treatment.
The clinical observations included examination of animals for changes in skin and fur, eyes and mucous membranes, respiratory and circulatory function, gait and posture, behaviour, tremors or convulsions and any other abnormal findings.
The clinical observations also included daily examination of the tail for any injection site reaction (for example, erythema or oedema).
Body weight was recorded once during the acclimation period and daily from the time of treatment on Day 1 to Day 8. The mean body weight values for study days 1-8 are shown as group mean±standard deviation (SD) in FIG. 14.

male Hooded Wistar rats = test: Social interaction test; format: in vivo, rat
Protocol: The primary phenotypic effect was a massive increase in a behaviour called “adjacent lying” where unfamiliar rats come together in passive social contact for prolonged periods. […] (n=6-8 pairs per condition, 20 minute test). Remarkably the effects of SOC-1 outlive its acute administration and a prolonged upregulation of social behaviour (measured as time spent in close proximity) in rats given only 3 doses of SOC-1, 2 weeks previously, was observed (FIG. 1, image (B)).

[1] = Pharmacokinetics after IP and PO administration; format: in vivo, Hooded Wistar rats; settings: for AUC(0-inf) / AUC(0-t) / Cmax / Tmax: Hooded Wistar, rat, plasma
Protocol: When given via an intraperitoneal injection (IP), SOC-1 plasma levels show a rapid elevation. This swiftly declines over the first hour before settling into a less hasty decrease in concentration over the proceeding hours. […] The initial increase in plasma levels is less pronounced when SOC-1 is given orally but the decline is far less rapid, with plasma concentration becoming equivalent to IP between 1 and 4 hours. In many ways this is a more favourable profile as, unlike the IP dosing, oral dosing results in levels of SOC-1 that are still high but that are also very stable over many hours, with a half-life of over four hours.

[2] = In vitro plasma stability assay; format: in vitro ADME; settings: human, incubated at body temperature

Cl.Cn1ncc2c1Nc1ccccc1NC2 [SOC-1]
locomotor activity (rats; 10-20 mg/kg IP): some mild inhibition of locomotor activity
tolerability of repeated dosing (body weight, coat condition) (rats; repeated dosing): without any apparent adverse effects
preference for the live rat over a toy rat (male Albino Wistar rats): enhanced rats natural preference for an unfamiliar live rat; also recorded: significantly elevated preference for the live rat
Hunched posture or gait- mild (incidence) (Sprague Dawley rats; 1 mg/kg IV): 0
Number of abnormalities detected: (incidence) (Sprague Dawley rats; 1 mg/kg IV): 3
Palpebral closure- mild/moderate (incidence) (Sprague Dawley rats; 1 mg/kg IV): 0
Piloerection- mild (incidence) (Sprague Dawley rats; 1 mg/kg IV): 0
Reduced activity- mild (incidence) (Sprague Dawley rats; 1 mg/kg IV): 0
Hunched posture or gait- mild (incidence) (Sprague Dawley rats; 3 mg/kg IV): 0
Number of abnormalities detected: (incidence) (Sprague Dawley rats; 3 mg/kg IV): 3
Palpebral closure- mild/moderate (incidence) (Sprague Dawley rats; 3 mg/kg IV): 0
Piloerection- mild (incidence) (Sprague Dawley rats; 3 mg/kg IV): 0
Reduced activity- mild (incidence) (Sprague Dawley rats; 3 mg/kg IV): 0
reaction at the time of dose administration (Sprague Dawley rats; 10 mg/kg IV in 0.9% saline): exaggerated flinch reaction and vocalisation
Hunched posture or gait- mild (incidence) (Sprague Dawley rats; 10 mg/kg IV): 3
Number of abnormalities detected: (incidence) (Sprague Dawley rats; 10 mg/kg IV): 0
Palpebral closure- mild/moderate (incidence) (Sprague Dawley rats; 10 mg/kg IV): 0
Piloerection- mild (incidence) (Sprague Dawley rats; 10 mg/kg IV): 3
Reduced activity- mild (incidence) (Sprague Dawley rats; 10 mg/kg IV): 0
Hunched posture or gait- mild (incidence) (Sprague Dawley rats; 30 mg/kg IV): 0
Number of abnormalities detected: (incidence) (Sprague Dawley rats; 30 mg/kg IV): 0
Palpebral closure- mild/moderate (incidence) (Sprague Dawley rats; 30 mg/kg IV): 1
Piloerection- mild (incidence) (Sprague Dawley rats; 30 mg/kg IV): 3
Reduced activity- mild (incidence) (Sprague Dawley rats; 30 mg/kg IV): 2
effect on body weight (Sprague Dawley rats; 1, 3, 10 and 30 mg/kg IV): no effects of SOC-1 test item treatment on body weight
injection site reactions (Sprague Dawley rats; 1, 3, 10 and 30 mg/kg IV): no findings of injection site reactions
morbidity and mortality (Sprague Dawley rats; 1, 3, 10 and 30 mg/kg IV): no unscheduled deaths or findings of morbidity
tolerability (Sprague Dawley rats; 1, 3, 10 and 30 mg/kg IV): tolerated in this study at all dose levels
clinical findings post-dose on Study Day 1 (Sprague Dawley rats; 10 and 30 mg/kg IV): piloerection, hunched posture and gait and palpebral closure
time to resolution of clinical findings post-dose (Sprague Dawley rats; 10 and 30 mg/kg IV): 4 to 24 h
Bodyweight, Mean (Sprague Dawley rats; Group 1 (1 mg/kg IV), day 1): 208.233 g
Bodyweight, Mean (Sprague Dawley rats; Group 1 (1 mg/kg IV), day 2): 203.733 g
Bodyweight, Mean (Sprague Dawley rats; Group 1 (1 mg/kg IV), day 3): 204.933 g
Bodyweight, Mean (Sprague Dawley rats; Group 1 (1 mg/kg IV), day 4): 208.100 g
Bodyweight, Mean (Sprague Dawley rats; Group 1 (1 mg/kg IV), day 5): 210.467 g
Bodyweight, Mean (Sprague Dawley rats; Group 1 (1 mg/kg IV), day 6): 215.300 g
Bodyweight, Mean (Sprague Dawley rats; Group 1 (1 mg/kg IV), day 7): 209.833 g
Bodyweight, Mean (Sprague Dawley rats; Group 1 (1 mg/kg IV), day 8): 216.633 g
Bodyweight, Mean (Sprague Dawley rats; Group 2 (3 mg/kg IV), day 1): 196.867 g
Bodyweight, Mean (Sprague Dawley rats; Group 2 (3 mg/kg IV), day 2): 193.700 g
Bodyweight, Mean (Sprague Dawley rats; Group 2 (3 mg/kg IV), day 3): 198.733 g
Bodyweight, Mean (Sprague Dawley rats; Group 2 (3 mg/kg IV), day 4): 199.233 g
Bodyweight, Mean (Sprague Dawley rats; Group 2 (3 mg/kg IV), day 5): 201.200 g
Bodyweight, Mean (Sprague Dawley rats; Group 2 (3 mg/kg IV), day 6): 204.733 g
Bodyweight, Mean (Sprague Dawley rats; Group 2 (3 mg/kg IV), day 7): 201.967 g
Bodyweight, Mean (Sprague Dawley rats; Group 2 (3 mg/kg IV), day 8): 206.333 g
Bodyweight, Mean (Sprague Dawley rats; Group 3 (10 mg/kg IV), day 1): 205.933 g
Bodyweight, Mean (Sprague Dawley rats; Group 3 (10 mg/kg IV), day 2): 207.267 g
Bodyweight, Mean (Sprague Dawley rats; Group 3 (10 mg/kg IV), day 3): 214.533 g
Bodyweight, Mean (Sprague Dawley rats; Group 3 (10 mg/kg IV), day 4): 216.100 g
Bodyweight, Mean (Sprague Dawley rats; Group 3 (10 mg/kg IV), day 5): 211.733 g
Bodyweight, Mean (Sprague Dawley rats; Group 3 (10 mg/kg IV), day 6): 213.433 g
Bodyweight, Mean (Sprague Dawley rats; Group 3 (10 mg/kg IV), day 7): 219.000 g
Bodyweight, Mean (Sprague Dawley rats; Group 3 (10 mg/kg IV), day 8): 218.900 g
Bodyweight, Mean (Sprague Dawley rats; Group 4 (30 mg/kg IV), day 1): 206.833 g
Bodyweight, Mean (Sprague Dawley rats; Group 4 (30 mg/kg IV), day 2): 202.567 g
Bodyweight, Mean (Sprague Dawley rats; Group 4 (30 mg/kg IV), day 3): 210.967 g
Bodyweight, Mean (Sprague Dawley rats; Group 4 (30 mg/kg IV), day 4): 216.500 g
Bodyweight, Mean (Sprague Dawley rats; Group 4 (30 mg/kg IV), day 5): 209.667 g
Bodyweight, Mean (Sprague Dawley rats; Group 4 (30 mg/kg IV), day 6): 213.367 g
Bodyweight, Mean (Sprague Dawley rats; Group 4 (30 mg/kg IV), day 7): 222.300 g
Bodyweight, Mean (Sprague Dawley rats; Group 4 (30 mg/kg IV), day 8): 219.767 g
acute tolerated dose (Sprague Dawley rats; bolus intravenous injection, female rats): at least 30 mg/kg
adjacent lying in the social interaction test (male Hooded Wistar rats; 5 and 10 mg/kg IP, 20 minute test): massive increase in adjacent lying
pro-social effects compared with AVP, MDMA and WAY 267,464 (male Hooded Wistar rats; most efficacious doses, adjacent lying): most powerful pro-social effects by a considerable margin
proximity towards a novel conspecific (time spent within 1 body length) (male Hooded Wistar rats; two weeks following treatment, 3 doses in total across 6 days): increased proximity towards a novel conspecific relative to controls
AUC(0-inf) ([1]; ip, 5 mg/kg): 5910 ng·h/mL
AUC(0-t) ([1]; ip, 5 mg/kg): 5520 ng·h/mL
Cmax ([1]; ip, 5 mg/kg): 3840 ng/mL
Tmax ([1]; ip, 5 mg/kg): 3.96 min
AUC(0-inf) ([1]; po, 5 mg/kg): 8490 ng·h/mL
AUC(0-t) ([1]; po, 5 mg/kg): 4060 ng·h/mL
Cmax ([1]; po, 5 mg/kg): 1320 ng/mL
Tmax ([1]; po, 5 mg/kg): 26.1 min
ka ([1]; IP, 5 mg/kg): 71.727 h⁻¹
ke ([1]; IP, 5 mg/kg): 0.679 h⁻¹
t1/2ka ([1]; IP, 5 mg/kg): 0.5798 min
t1/2ke ([1]; IP, 5 mg/kg): 61.26 min
ka ([1]; PO, 5 mg/kg): 9.45 h⁻¹
t1/2ka ([1]; PO, 5 mg/kg): 4.38 min
t1/2ke ([1]; PO, 5 mg/kg): 248.8 min
half-life ([1]; oral dosing): over four
oral bioavailability ([1]; relative to the intraperitoneal route): excellent oral bioavailability
half-life at 500 nM [2]: > 360 min
